Laboratory results from PMC5007854, “β-Nitrostyrenes as Potential Anti-leishmanial Agents” (Frontiers in Microbiology, 2016).
Converted amounts (≈) assume the structure as drawn. Like-named read-outs stand apart in the source and are kept apart here.

Assays:
Type in all cases: cell-based
[1] = tested on: Escherichia coli ATCC 25922; experiment: Broth microdilution antibacterial susceptibility (MIC/MBC); settings: Escherichia coli; for MIC: broth microdilution, 35°C, 24 h, read-out: MIC, Ec ATCC 25922; for MBC: ≥99.9% reduction of original inoculum, read-out: MBC, Ec ATCC 25922
Source text: (§1) One reference each of the following species was used for their in vitro susceptibility to β-nitrostyrene in this study: Staphylococcus aureus ATCC 29213, Staphylococcus epidermidis ATCC 14990, Escherichia coli ATCC 25922, Pseudomonas aeruginosa ATCC 27853, Candida albicans ATCC 90028, Candida glabrata ATCC 90030, Aspergillus fumigatus ATCC 16424 and Aspergillus niger ATCC 16404. These strains were procured from the American Type Culture Collection (ATCC, Manassas, VA, USA).
(§2) The antibacterial and antifungal activities of the β-nitrostyrenes were performed by broth microdilution methods as per the guidelines of Clinical and Laboratory Standard Institute (Wayne, [1998], [2008a],[b],[c]) by using Mueller-Hinton broth (MHB; Becton-Dickinson, Cockeysville, MD, USA) supplemented with calcium (25 mg/L) and magnesium (12.5 mg/L) for bacterial strains while as RPMI 1640 medium with L-glutamine and without sodium bicarbonate, buffered to pH 7.0 with 0.165 M 3-(N-morpholino) propanesulfonic acid (MOPS; both from Sigma) was used for fungal strains. Stock solutions were prepared in 100% dimethyl sulfoxide (DMSO; Sigma; distilled water was used for ciprofloxacin), with a final DMSO concentration of 1% (vol. per vol.) and two-fold serial dilutions were prepared in media in amounts of 100 μL per well in 96-well U-bottom microtiter plates (Tarsons, Kolkata, India) to yield twice the final concentration required for testing, which ranged from 64 to 0.12 μg/mL for β-nitrostyrenes and 16 to 0.03 μg/mL for ciprofloxacin as well as amphotericin B. Stock inoculum suspensions of the bacteria, Candida species and Aspergillus species were prepared in sterile normal saline (0.85%) containing 0.05% polysorbate 20 (NST) from overnight (3 to 5-day old for Aspergillus species) strains grown on Trypticase soy agar (TSA; Becton-Dickinson) and potato dextrose agar (Difco Laboratories, Detroit, MI, USA) respectively at 35°C. Inocula were verified for each assay by plating onto agar plates for colony enumeration. These suspensions were further diluted in the respective test medium and a 100 μl volume of this diluted inoculum was added to each well of the plate, resulting in a final inoculum concentration of approximately 5 × 10^5 CFU/mL for bacter1ia, (Wayne, [2008a]) approximately 2.5 × 10^4 CFU/ml for Candida species (Pfaller et al., [2004]) while as 0.4 × 10^4 to 5 × 10^4 CFU/mL for Aspergillus species (Wayne, [2008c]). Untreated growth control, vehicle control (DMSO) and sterility control wells were included for each isolate tested. Ciprofloxacin and amphotericin B served as the standard drug controls for bacterial and fungal strains, respectively. The microtiter plates were incubated at 35°C for 24 h for bacterial strains and 48 h for fungal strains. The plates were read visually and the minimum inhibitory concentration (MIC) was defined as the lowest concentration of test sample that prevented visible growth with respect to the growth control.
(§3) The minimum bactericidal concentration (MBC) and minimum fungicidal concentration (MFC) were determined by plating 100 μl volumes on agar plates from the wells showing no visible growth (clear MIC well). The plates were incubated as described above in MIC measurements. […] All experiments were conducted twice in duplicates on separate occasions with freshly prepared inoculums and stock solutions.

[2] = tested on: Pseudomonas aeruginosa ATCC 27853; experiment: as above; settings: Pseudomonas aeruginosa; for MIC: broth microdilution, 35°C, 24 h, read-out: MIC, Pa ATCC 27853; for MBC: ≥99.9% reduction of original inoculum, read-out: MBC, Pa ATCC 27853
Source text: as §1, §2, §3

[3] = tested on: Staphylococcus epidermidis ATCC 14990; experiment: as above; settings: for MIC / MBC: Staphylococcus epidermidis; for MIC: read-out: MIC, Se ATCC 14990; for MBC: ≥99.9% reduction of original inoculum, read-out: MBC, Se ATCC 14990
Source text: as §1, §2, §3

[4] = tested on: Staphylococcus aureus ATCC 29213; experiment: as above; settings: for MIC / MBC: Staphylococcus aureus; for MIC: read-out: MIC, Sa ATCC 29213; for MBC: ≥99.9% reduction of original inoculum, read-out: MBC, Sa ATCC 29213
Source text: as §1, §2, §3

[5] = tested on: Candida albicans ATCC 90028; experiment: Broth microdilution antifungal susceptibility (MIC/MFC); settings: Candida albicans; for MIC: broth microdilution, 35°C, 48 h, read-out: MIC, Ca ATCC 90028; for MFC: ≥99.9% reduction of original inoculum, read-out: MFC, Ca ATCC 90028
Source text: as §1, §2, §3

[6] = tested on: Aspergillus fumigatus ATCC 16424; experiment: as above; settings: Aspergillus fumigatus; for MIC: broth microdilution, 35°C, 48 h, read-out: MIC, Af ATCC 16424; for MFC: ≥99.9% reduction of original inoculum, read-out: MFC, Af ATCC 16424
Source text: as §1, §2, §3

[7] = tested on: Candida glabrata ATCC 90030; experiment: as above; settings: Nakaseomyces glabratus; for MIC: broth microdilution, 35°C, 48 h, read-out: MIC, Cg ATCC 90030; for MFC: ≥99.9% reduction of original inoculum, read-out: MFC, Cg ATCC 90030
Source text: as §1, §2, §3

[8] = tested on: Aspergillus niger ATCC 16404; experiment: as above; settings: Aspergillus niger; for MIC: broth microdilution, 35°C, 48 h, read-out: MIC, An ATCC 16404; for MFC: ≥99.9% reduction of original inoculum, read-out: MFC, An ATCC 16404
Source text: as §1, §2, §3

[9] = ATCC14990, 24 h, broth microdilution, 35°C, 24 h
[10] = ATCC29213, 24 h, broth microdilution, 35°C, 24 h
[11] = ATCC14990, broth microdilution, 35°C, 24 h
[12] = ATCC29213, broth microdilution, 35°C, 24 h
[13] = broth microdilution, 35°C, 24 h

| SMILES | MIC ([1]; ATCC25922, 24 h) [µg/mL] | MBC ([1]; ATCC25922) [µg/mL] | MIC ([2]; ATCC27853, 24 h) [µg/mL] | MBC ([2]; ATCC27853) [µg/mL] | MIC [3, 9] [µg/mL] | MBC ([3]; ATCC14990) [µg/mL] | MIC [4, 10] [µg/mL] | MBC ([4]; ATCC29213) [µg/mL] | MIC ([5]; ATCC90028, 48 h) [µg/mL] | MFC ([5]; ATCC90028) [µg/mL] | MIC ([6]; ATCC16424, 48 h) [µg/mL] | MFC ([6]; ATCC16424) [µg/mL] | MIC ([7]; ATCC90030, 48 h) [µg/mL] | MFC ([7]; ATCC90030) [µg/mL] | MIC ([8]; ATCC16404, 48 h) [µg/mL] | MFC ([8]; ATCC16404) [µg/mL] | other results |
| --- | --- | --- | --- | --- | --- | --- | --- | --- | --- | --- | --- | --- | --- | --- | --- | --- | --- |
| O=C(O)c1cn(C2CC2)c2cc(N3CCNCC3)c(F)cc2c1=O [Cipro, Ciprofloxacin, reference compound] | < 0.03 | < 0.03 | 0.25 (≈ 0.754 µM) | 1 (≈ 3.02 µM) | 0.25 (≈ 0.754 µM) | 0.25 (≈ 0.754 µM) | 0.25 (≈ 0.754 µM) | 0.5 (≈ 1.51 µM) | – | – | – | – | – | – | – | – | – |
| O=[N+]([O-])/C=C/c1ccc(Cl)cc1 [Compound 1, 1-chloro-4-((E)-2-nitrovinyl) benzene] | 32 (≈ 174 µM) | 32 (≈ 174 µM) | 32 (≈ 174 µM) | 64 (≈ 349 µM) | 16 (≈ 87.1 µM) | 16 (≈ 87.1 µM) | 32 (≈ 174 µM) | 32 (≈ 174 µM) | 32 (≈ 174 µM) | 32 (≈ 174 µM) | 8 (≈ 43.6 µM) | 8 (≈ 43.6 µM) | 4 (≈ 21.8 µM) | 4 (≈ 21.8 µM) | 4 (≈ 21.8 µM) | 4 (≈ 21.8 µM) | – |
| C/C(=C\c1ccc(Cl)cc1)[N+](=O)[O-] [Compound 2, 1-chloro-4-((E)-2-nitroprop-1-enyl) benzene] | – | > 64 | – | > 64 | – | 32 (≈ 162 µM) | – | > 64 | – | > 64 | – | > 64 | – | 32 (≈ 162 µM) | – | > 64 | MIC ([5]; ATCC90028): > 64 µg/mL; MIC ([6]; ATCC16424): > 64 µg/mL; MIC ([7]; ATCC90030): 32 µg/mL (≈ 162 µM); MIC ([8]; ATCC16404): 64 µg/mL (≈ 324 µM); MIC ([1]; ATCC25922): > 64 µg/mL; MIC ([2]; ATCC27853): > 64 µg/mL; MIC [3, 11]: 32 µg/mL (≈ 162 µM); MIC [4, 12]: > 64 µg/mL |
| CC/C(=C\c1ccc(Cl)cc1)[N+](=O)[O-] [Compound 3, 1-chloro-4-((E)-2-nitrobut-1-enyl) benzene] | – | > 64 | – | > 64 | 2 to 16 (≈ 9.45 to 75.6 µM) | 2 (≈ 9.45 µM) | 2 to 32 (≈ 9.45 to 151 µM) | 4 (≈ 18.9 µM) | – | > 64 | – | 64 (≈ 302 µM) | – | > 64 | – | 32 (≈ 151 µM) | MIC, Se ATCC 14990 [3, 13]: 2 µg/mL (≈ 9.45 µM); MIC, Sa ATCC 29213 [4, 13]: 4 µg/mL (≈ 18.9 µM) |
| CN(C)c1ccc(/C=C/[N+](=O)[O-])cc1 [Compound 4, N,N-dimethyl-4-((E)-2-nitrovinyl) benzenamine] | > 64 | > 64 | > 64 | > 64 | > 64 | > 64 | > 64 | > 64 | > 64 | > 64 | 64 (≈ 333 µM) | > 64 | 32 (≈ 166 µM) | 32 (≈ 166 µM) | 64 (≈ 333 µM) | > 64 | – |
| C/C(=C\c1ccc(N(C)C)cc1)[N+](=O)[O-] [Compound 5, N,N-dimethyl-4-((E)-2-nitroprop-1-enyl) benzenamine] | > 64 | > 64 | > 64 | > 64 | > 64 | > 64 | > 64 | > 64 | > 64 | > 64 | > 64 | > 64 | 32 (≈ 155 µM) | 32 (≈ 155 µM) | 64 (≈ 310 µM) | > 64 | – |
| CC/C(=C\c1ccc(N(C)C)cc1)[N+](=O)[O-] [Compound 6, N,N-dimethyl-4-((E)-2-nitrobut-1-enyl) benzenamine] | > 64 | > 64 | > 64 | > 64 | > 64 | > 64 | > 64 | > 64 | > 64 | > 64 | > 64 | > 64 | 32 (≈ 145 µM) | 32 (≈ 145 µM) | 64 (≈ 291 µM) | > 64 | – |
| COc1ccc(/C=C/[N+](=O)[O-])cc1 [Compound 13, 1-methoxy-4-((E)-2-nitrovinyl) benzene] | > 64 | > 64 | > 64 | > 64 | 32 (≈ 179 µM) | 32 (≈ 179 µM) | 64 (≈ 357 µM) | 64 (≈ 357 µM) | 64 (≈ 357 µM) | 64 (≈ 357 µM) | 64 (≈ 357 µM) | > 64 | 32 (≈ 179 µM) | 32 (≈ 179 µM) | 64 (≈ 357 µM) | 64 (≈ 357 µM) | – |
| O=[N+]([O-])/C=C/c1ccc(O)cc1 [Compound 16, 4-((E)-2-nitrovinyl) phenol] | 64 (≈ 388 µM) | > 64 | > 64 | > 64 | 64 (≈ 388 µM) | 64 (≈ 388 µM) | 64 (≈ 388 µM) | > 64 | 32 (≈ 194 µM) | 32 (≈ 194 µM) | 16 (≈ 96.9 µM) | 16 (≈ 96.9 µM) | 16 (≈ 96.9 µM) | 16 (≈ 96.9 µM) | 8 (≈ 48.4 µM) | 16 (≈ 96.9 µM) | – |
| O=[N+]([O-])/C=C/c1cccc(O)c1 [Compound 19, 3-((E)-2-nitrovinyl) phenol] | – | > 64 | – | > 64 | – | > 64 | – | > 64 | – | > 64 | – | > 64 | – | 16 (≈ 96.9 µM) | – | 64 (≈ 388 µM) | MIC ([5]; ATCC90028): 64 µg/mL (≈ 388 µM); MIC ([6]; ATCC16424): 64 µg/mL (≈ 388 µM); MIC ([7]; ATCC90030): 16 µg/mL (≈ 96.9 µM); MIC ([8]; ATCC16404): 64 µg/mL (≈ 388 µM); MIC ([1]; ATCC25922): > 64 µg/mL; MIC ([2]; ATCC27853): > 64 µg/mL; MIC [3, 11]: 64 µg/mL (≈ 388 µM); MIC [4, 12]: > 64 µg/mL |
| O=[N+]([O-])/C=C/c1c[nH]c2ccccc12 [Compound 28, 3-((E)-2-nitrovinyl)-1H-indole] | 64 (≈ 340 µM) | > 64 | > 64 | > 64 | 64 (≈ 340 µM) | 64 (≈ 340 µM) | 64 (≈ 340 µM) | > 64 | 32 (≈ 170 µM) | 32 (≈ 170 µM) | 16 (≈ 85 µM) | 16 (≈ 85 µM) | 16 (≈ 85 µM) | 16 (≈ 85 µM) | 8 (≈ 42.5 µM) | 16 (≈ 85 µM) | – |
